For assay [1], the system named is phosphorylation of EGFR (Tyr1068) in NCI-H1975 cell line that harbors the EGFR L858R T790M mutations. Briefly: NCI-H1975 pEGFR AlphaLISA assay. The note with it: Homo sapiens, NCI-H1975, inhibition of phosphorylation of mutant EGFR in NCI-H1975 cells; 4-5 hours incubation; read-out: Ext pEGFR H1975. The assay is classed as cell-based. The method in brief: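 NCI-H1975 cells (EGFR L858R/T790M) seeded overnight, then treated with compound for 4-5 h at 37 °C/5% CO2. After lysis, p-EGFR (Tyr1068) quantified by AlphaLISA SureFire Ultra with acceptor then donor beads; IC50 fitted from percent inhibition versus log concentration.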

For assay [2], the target named is T1, EGFR (L858R T790M C797S) (Homo sapiens, UniProt P00533, C797S/L858R/T790M).
T1 construct: purchased SignalChem E10-122VG
Briefly: Biochemical EGFR inhibition assay (Caliper mobility shift), EGFR LRTMCS mutant. The note with it: inhibitory activity against EGFR LRTMCS mutant; apparent IC50; read-out: Ext Enz LRTMCS. The method in brief: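 Kinase reactions proceed at 25° C. to 10%–20% conversion of total peptide, are terminated with 35 mM EDTA, and the phosphopeptide is resolved from substrate by electrophoretic mobility shift. Apparent IC50 values come from plotting percent activity against log compound concentration.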

The target in assay [3] is T2, EGFR (D770_N771insNPG T790M) (Homo sapiens, UniProt P00533, INS770NPG/T790M).
T2 construct: purchased SignalChem E10-132TG
Briefly: Biochemical EGFR inhibition assay (mobility shift), EGFR D770_N771insNPG T790M. The note with it: inhibitory activity against EGFR_D770_N771insNPG/T790M mutant; apparent IC50; read-out: Enz EGFR_D770_N771insNPG/T790M. The protocol: Inhibitory effects of the compounds of the disclosure were measured in biochemical assays that measure the phosphorylation activity of EGFR enzyme phosphorylates 2.5 micromolar 5-FAM-[…]-CONH2 peptide substrate (FL-Peptide 22, PerkinElmer, 760366) in the presence of adenosine-5′-triphosphate (ATP) and varying concentrations of the test compound. […] Reactions proceeded until between 10% to 20% total peptides were phosphorylated at room temperature (25° C.) and were terminated with 35 mM 2,2′,2″,2′″-(ethane-1,2-diyldinitrilo)tetraacetic acid (EDTA). EGFR enzymatic activity was monitored using the Perkin Elmer electrophoretic mobility shift technology platform (the Caliper mobility shift detection method) where the phosphorylated peptide (product) and substrate were electrophoretically separated and measured. Percent activity was plotted against log concentration of compound and points to generate an apparent IC50. The following enzyme forms of EGFR were examples that were used in these assays: • EGFR WT (SignalChem, E10-112G) • EGFR (L858R T790M C797S) (SignalChem, E10-122VG) • EGFR (d746-750) T790M C797S (SignalChem, E10-122UG) • EGFR L858R (SignalChem, E10-122BG) • EGFR (d746-750) (SignalChem, E10-122JG) • EGFR (D770_N771insNPG T790M) (SignalChem, E10-132TG) • EGFR (D770_N771insNPG) (SignalChem, E10-132GG)

pIC50: −log10 of the molar value. A value given as a limit tells only on which side of the number the result lay.

This passage reports IC50 results from patent publication US12172983B2, “EGFR inhibitors” (Blueprint Medicines Corporation, priority 2019, dated 2024).

T2 sequence (P00533 with tags, fused parts or gaps INS770NPG/T790M limits assumed): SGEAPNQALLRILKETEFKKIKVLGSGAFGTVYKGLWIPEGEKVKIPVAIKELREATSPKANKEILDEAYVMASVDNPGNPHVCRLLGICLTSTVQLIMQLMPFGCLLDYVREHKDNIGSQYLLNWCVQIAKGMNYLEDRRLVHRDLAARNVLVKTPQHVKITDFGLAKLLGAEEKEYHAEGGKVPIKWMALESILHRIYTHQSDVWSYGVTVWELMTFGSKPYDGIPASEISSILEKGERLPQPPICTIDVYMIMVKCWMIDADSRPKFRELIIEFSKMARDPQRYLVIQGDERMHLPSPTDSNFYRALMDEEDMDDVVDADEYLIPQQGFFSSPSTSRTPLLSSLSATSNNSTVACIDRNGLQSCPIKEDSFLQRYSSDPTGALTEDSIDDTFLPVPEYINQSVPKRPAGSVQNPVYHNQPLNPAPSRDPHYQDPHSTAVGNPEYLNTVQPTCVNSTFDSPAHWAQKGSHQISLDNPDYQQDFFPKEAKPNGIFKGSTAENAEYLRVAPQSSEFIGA
T1 sequence (P00533 25-1210 T790M/C797S/L858R): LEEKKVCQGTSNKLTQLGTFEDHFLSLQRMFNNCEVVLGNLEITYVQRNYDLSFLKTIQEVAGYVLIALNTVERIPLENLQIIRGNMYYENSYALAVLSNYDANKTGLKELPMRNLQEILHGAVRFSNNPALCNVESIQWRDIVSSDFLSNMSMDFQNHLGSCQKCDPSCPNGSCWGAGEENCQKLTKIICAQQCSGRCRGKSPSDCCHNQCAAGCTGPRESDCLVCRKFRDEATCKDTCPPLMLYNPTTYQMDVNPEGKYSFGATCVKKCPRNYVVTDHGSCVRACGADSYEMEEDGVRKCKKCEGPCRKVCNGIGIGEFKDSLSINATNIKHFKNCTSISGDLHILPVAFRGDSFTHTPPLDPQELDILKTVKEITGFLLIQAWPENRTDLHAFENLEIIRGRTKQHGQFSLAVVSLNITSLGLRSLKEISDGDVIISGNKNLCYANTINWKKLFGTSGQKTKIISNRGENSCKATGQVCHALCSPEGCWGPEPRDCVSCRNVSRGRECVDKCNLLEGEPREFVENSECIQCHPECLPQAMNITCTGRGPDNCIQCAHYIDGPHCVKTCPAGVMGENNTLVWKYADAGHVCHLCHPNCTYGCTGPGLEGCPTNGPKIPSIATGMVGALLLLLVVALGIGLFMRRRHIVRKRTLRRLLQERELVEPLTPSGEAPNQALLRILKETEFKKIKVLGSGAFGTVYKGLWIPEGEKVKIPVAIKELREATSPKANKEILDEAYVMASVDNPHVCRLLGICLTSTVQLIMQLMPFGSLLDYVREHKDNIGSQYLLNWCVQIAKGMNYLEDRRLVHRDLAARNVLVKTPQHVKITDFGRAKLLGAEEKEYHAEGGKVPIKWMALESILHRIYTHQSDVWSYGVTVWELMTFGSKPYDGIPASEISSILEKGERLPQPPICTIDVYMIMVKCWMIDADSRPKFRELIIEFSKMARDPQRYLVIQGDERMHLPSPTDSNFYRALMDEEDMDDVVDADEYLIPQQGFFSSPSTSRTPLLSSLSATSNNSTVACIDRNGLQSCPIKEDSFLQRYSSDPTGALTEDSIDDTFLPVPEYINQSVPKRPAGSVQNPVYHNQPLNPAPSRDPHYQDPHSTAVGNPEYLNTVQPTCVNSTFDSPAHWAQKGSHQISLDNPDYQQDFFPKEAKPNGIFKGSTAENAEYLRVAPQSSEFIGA

With `CC(C)c1cnc(N2C[C@@H](CS(C)(=O)=O)[C@@H]2C)c2cnc(Nc3ccnc(N4CC[C@@H](O)[C@@](C)(F)C4)n3)cc12` (single isomer, unassigned) [Compound 128], the pIC50 was not below 8.00 in assay [1], not below 7.82 in assay [2] and 7.00 to 7.70 in assay [3].
`CC(C)c1cnc(N2CC(CS(C)(=O)=O)C2)c2cnc(Nc3ccnc(N4CCOCC4)n3)cc12` [Compound 2, 8-[3-(methanesulfonylmethyl)azetidin-1-yl]-N-[2-(morpholin-4-yl)pyrimidin-4-yl]-5-(propan-2-yl)-2,7-naphthyridin-3-amine]: the pIC50 in assay [1] was 7.30 to 7.52; in assay [2], not below 7.82; in assay [3], 6.12 to 6.60.
The matching figures for `CC(C)c1cnc(N2CC(CS(C)(=O)=O)C2)c2cnc(Nc3ccnc(N4C[C@@H](F)[C@@H](F)C4)n3)cc12` [Compound 7, N-{2-[cis-3,4-difluoropyrrolidin-1-yl]pyrimidin-4-yl}-8-[3-(methanesulfonylmethyl)azetidin-1-yl]-5-(propan-2-yl)-2,7-naphthyridin-3-amine]: 7.70 to 8.00, not below 7.82 and 6.12 to 6.60.
The matching figures for `[2H]C([2H])([2H])O[C@@H]1CCN(c2nccc(Nc3cc4c(C(C)C)ncc(N5CC(CS(C)(=O)=O)C5)c4cn3)n2)C[C@@H]1F` [Compound 265, N-{2-[(3S,4R)-3-fluoro-4-(^2H3)methoxypiperidin-1-yl]pyrimidin-4-yl}-8-[3-(methanesulfonylmethyl)azetidin-1-yl]-5-(propan-2-yl)-2,6-naphthyridin-3-amine]: not below 8.00, not below 7.82 and 6.60 to 7.00.
